These compounds were tested against T1, active p38 alpha enzyme (Upstate Biotechnology) (Homo sapiens, UniProt Q16539) (assay: p38α biochemical assay (ATP turnover, luminescent detection, Cambrex PKlight)). Conditions: p38α biochemical assay, Table 1 Biological Activity.
T1 construct: purchased Upstate Biotechnology
Method in brief: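 Active human p38α was incubated with full-length MapkapK2 protein as substrate and 1.4 uM ATP (final) for 2 hours at 30C. Buffer: 200 mM Tris, 100 mM MgCl2, 1.5 mM EGTA, 4 mM CaCl2, 20 mM MOPS, 1 mM EDTA, 1% glycerol, 0.1% β-mercaptoethanol, 1 mg/ml BSA. Total ATP turnover read by luminescence.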

T1 sequence (Q16539 whole entry): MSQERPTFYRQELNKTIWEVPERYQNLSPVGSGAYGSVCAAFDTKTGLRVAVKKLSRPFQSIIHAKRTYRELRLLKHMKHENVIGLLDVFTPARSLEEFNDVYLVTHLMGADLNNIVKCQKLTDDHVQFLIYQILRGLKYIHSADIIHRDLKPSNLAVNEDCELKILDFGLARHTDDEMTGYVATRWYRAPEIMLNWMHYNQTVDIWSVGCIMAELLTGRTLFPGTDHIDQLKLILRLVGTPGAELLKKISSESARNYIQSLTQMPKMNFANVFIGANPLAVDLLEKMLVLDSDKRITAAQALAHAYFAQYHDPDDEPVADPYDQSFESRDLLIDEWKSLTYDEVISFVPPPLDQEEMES

`CC(C)NC(=O)c1csc(-c2oc(CN3CCN(C(=O)c4cc([N+](=O)[O-])ccc4O)CC3)nc2-c2ccc(F)cc2)n1` [Example 471] and `CC(C)NC(=O)c1csc(-c2oc(CN3CCN(C(=O)c4ccc(F)cc4Cl)CC3)nc2-c2ccc(F)cc2)n1` [Example 436] cannot be ordered by IC50: at most 1000 nM for the first, over 1000 nM for the second.

`CC(C)NC(=O)c1csc(-c2c(-c3ccc(F)cc3)noc2CNC(=O)Cc2ccc(O)c(Cl)c2)n1` [Example 715] and `CC(C)NC(=O)c1csc(-c2c(-c3ccc(F)cc3)noc2CNC(=O)c2ccccc2Cl)n1` [Example 626] cannot be ordered by IC50: over 1000 nM for the first, over 1000 nM for the second.

`CC(C)NC(=O)c1csc(-c2oc(CNC(=O)CCc3ccccc3Br)nc2-c2ccc(F)cc2)n1` [Example 309] and `CC(C)NC(=O)c1csc(-c2oc(CNC(=O)c3cccc(Br)n3)nc2-c2ccc(F)cc2)n1` [Example 276] cannot be ordered by IC50: over 1000 nM for the first, over 1000 nM for the second.

`CC(C)NC(=O)c1csc(-c2oc(CNC(=O)c3cscn3)nc2-c2ccc(F)cc2)n1` [Example 119] and `Cc1ccc(C(=O)NCc2nc(-c3ccc(F)cc3)c(-c3nc(C(=O)NC(C)C)cs3)o2)cc1` [Example 123] cannot be ordered by IC50: at most 1000 nM for the first, over 1000 nM for the second.

`CC(C)NC(=O)c1csc(-c2oc(CN3CCN(C(=O)c4cccc(Br)n4)CC3)nc2-c2ccc(F)cc2)n1` [Example 513] and `CC(C)NC(=O)c1csc(-c2oc(CN3CCN(C(=O)c4ccccn4)CC3)nc2-c2ccc(F)cc2)n1` [Example 351] cannot be ordered by IC50: over 1000 nM for the first, over 1000 nM for the second.

`COc1ccc([N+](=O)[O-])c(C(=O)NCc2nc(-c3ccc(F)cc3)c(-c3nc(C(=O)NC(C)C)cs3)o2)c1` [Example 265] and `COc1ccc(Br)c(C(=O)NCc2nc(-c3ccc(F)cc3)c(-c3nc(C(=O)NC(C)C)cs3)o2)c1` [Example 316] cannot be ordered by IC50: at most 1000 nM for the first, at most 1000 nM for the second.

`CC(C)NC(=O)c1csc(-c2oc(CNC(=O)c3cc(Cl)c(O)c(Cl)c3)nc2-c2ccc(F)cc2)n1` [Example 281] and `COc1cc(C(=O)NCc2nc(-c3ccc(F)cc3)c(-c3nc(C(=O)NC(C)C)cs3)o2)cc(OC)c1O` [Example 266] cannot be ordered by IC50: at most 1000 nM for the first, at most 1000 nM for the second.

`CCC(=O)C(=O)NCc1nc(-c2ccc(F)cc2)c(-c2nc(C(=O)NC(C)C)cs2)o1` [Example 102] and `CC(C)NC(=O)c1csc(-c2oc(CNC(=O)c3ccc(F)cc3)nc2-c2ccc(F)cc2)n1` [Example 126] cannot be ordered by IC50: at most 1000 nM for the first, over 1000 nM for the second.

`CC(C)NC(=O)c1csc(-c2oc(CNC(=O)C(Cc3ccccc3)NC(=O)OC(C)(C)C)nc2-c2ccc(F)cc2)n1` (stereo not shown) [Example 331] and `COc1ccc(C(=O)NCc2nc(-c3ccc(F)cc3)c(-c3nc(C(=O)NC(C)C)cs3)o2)cc1O` [Example 189] cannot be ordered by IC50: at most 1000 nM for the first, over 1000 nM for the second.

`C#CCNC(=O)c1csc(-c2[nH]c(CN3CCNCC3)nc2-c2ccc(F)cc2)n1` [Example 82, 2-|5-(4-Fluoro-phenyl)-2-piperazin-1-ylmethyl-3H-imidazol-4-yl|-thiazole-4-carboxylic acid prop-2-ynylamide] and `CC(C)NC(=O)c1csc(-c2oc(CN3CCN(C(=O)/C=C/c4ccccc4)CC3)nc2-c2ccc(F)cc2)n1` [Example 368] cannot be ordered by IC50: at most 1000 nM for the first, over 1000 nM for the second.

`CC(C)NC(=O)c1csc(-c2c(-c3ccc(F)cc3)noc2CNC(=O)c2ccc(F)c([N+](=O)[O-])c2)n1` [Example 712] and `COc1cc(C(=O)NCc2onc(-c3ccc(F)cc3)c2-c2nc(C(=O)NC(C)C)cs2)c([N+](=O)[O-])cc1OC` [Example 782] cannot be ordered by IC50: over 1000 nM for the first, over 1000 nM for the second.

`CC(C)NC(=O)c1csc(-c2c(-c3ccc(F)cc3)noc2CNC(=O)c2ccc(C(C)(C)C)cc2)n1` [Example 684] and `COc1cc(/C=C/C(=O)N2CCN(Cc3nc(-c4ccc(F)cc4)c(-c4nc(C(=O)NC(C)C)cs4)o3)CC2)ccc1O` [Example 498] cannot be ordered by IC50: over 1000 nM for the first, at most 1000 nM for the second.

Same assay, conditions: p38α kinase; Table 1 Biological Activity

`Cc1ccc(NCc2nc(-c3ccc(F)cc3)c(-c3nc(C(=O)NC(C)C)cs3)o2)cc1` [Example 1309] and `CC(C)NC(=O)c1csc(-c2oc(CNc3ccc(F)cc3)nc2-c2ccc(F)cc2)n1` [Example 1316] cannot be ordered by IC50: over 1000 nM for the first, over 1000 nM for the second.

`Cc1nc(-c2ccc(F)cc2)c(-c2nc(C(=O)NN3CCOCC3)cs2)s1` [Example 1737] and `Cc1nc(-c2ccc(F)cc2)c(-c2nc(C(=O)N3CCC(O)(O)CC3)cs2)s1` [Example 1886] cannot be ordered by IC50: over 1000 nM for the first, over 1000 nM for the second.

`CC(C)NC(=O)c1csc(-c2c(-c3ccc(F)cc3)noc2CNCCCCO)n1` [Example 1406] and `CCC(C)CNCc1onc(-c2ccc(F)cc2)c1-c1nc(C(=O)NC(C)C)cs1` (stereo not shown) [Example 1399] cannot be ordered by IC50: over 1000 nM for the first, over 1000 nM for the second.

`COc1ccc(CNC(=O)c2csc(-c3sc(C)nc3-c3ccc(F)cc3)n2)cc1` [Example 1780] and `Cc1nc(-c2ccc(F)cc2)c(-c2nc(C(=O)NCCc3cccc(F)c3)cs2)s1` [Example 1784] cannot be ordered by IC50: at most 1000 nM for the first, at most 1000 nM for the second.

`CC(C)NC(=O)c1csc(-c2oc(CNc3cc(C(F)(F)F)cc(C(F)(F)F)c3)nc2-c2ccc(F)cc2)n1` [Example 1373] and `CC(C)NC(=O)c1csc(-c2oc(CNc3cc(C(F)(F)F)ccc3F)nc2-c2ccc(F)cc2)n1` [Example 1364] cannot be ordered by IC50: over 1000 nM for the first, over 1000 nM for the second.

`Cc1nc(-c2ccc(F)cc2)c(-c2nc(C(=O)N3CCN(c4ccccc4C#N)CC3)cs2)s1` [Example 1911] and `Cc1nc(-c2ccc(F)cc2)c(-c2nc(C(=O)N3CCN(CCc4ccccc4)CC3)cs2)s1` [Example 1916] cannot be ordered by IC50: at most 1000 nM for the first, over 1000 nM for the second.

`Cc1nc(-c2ccc(F)cc2)c(-c2nc(C(=O)N(C)C3CCCCC3)cs2)s1` [Example 1857] and `Cc1nc(-c2ccc(F)cc2)c(-c2nc(C(=O)N3CCCCC3C)cs2)s1` (stereo not shown) [Example 1847] cannot be ordered by IC50: over 1000 nM for the first, over 1000 nM for the second.

`CC(C)CCCC(C)NCc1nc(-c2ccc(F)cc2)c(-c2nc(C(=O)NC(C)C)cs2)o1` (stereo not shown) [Example 1109] and `CC(C)NC(=O)c1csc(-c2oc(CNCCCN3CCOCC3)nc2-c2ccc(F)cc2)n1` [Example 1137] cannot be ordered by IC50: over 1000 nM for the first, over 1000 nM for the second.

`CC(C)NC(=O)c1csc(-c2c(-c3ccc(F)cc3)noc2CN(C)CC(O)c2ccc(O)cc2)n1` (stereo not shown) [Example 1572] and `COc1ccc(CNCc2onc(-c3ccc(F)cc3)c2-c2nc(C(=O)NC(C)C)cs2)cc1` [Example 1456] cannot be ordered by IC50: over 1000 nM for the first, over 1000 nM for the second.

`CC(C)NC(=O)c1csc(-c2oc(CN(C)CCc3ccccc3)nc2-c2ccc(F)cc2)n1` [Example 1227] and `CC(C)NC(=O)c1csc(-c2c(-c3ccc(F)cc3)noc2CN(CCN(C)C)Cc2ccccc2)n1` [Example 1578] cannot be ordered by IC50: over 1000 nM for the first, over 1000 nM for the second.

`COc1ccc(Br)c(C(=O)N2CCC(c3[nH]nc(-c4ccc(F)cc4)c3-c3nc(C(=O)NC(C)C)cs3)CC2)c1` [Example 1030] and `COc1cccc(C(=O)N2CCC(c3[nH]nc(-c4ccc(F)cc4)c3-c3nc(C(=O)NC(C)C)cs3)CC2)c1OC` [Example 942] cannot be ordered by IC50: over 1000 nM for the first, over 1000 nM for the second.

`CCC(CO)NC(=O)c1csc(-c2c(-c3ccc(F)cc3)n[nH]c2C2CCNCC2)n1` (stereo not shown) [Example 2051] and `O=C(NCC1CC1)c1csc(-c2c(-c3ccc(F)cc3)n[nH]c2C2CCNCC2)n1` [Example 2029] cannot be ordered by IC50: at most 1000 nM for the first, at most 1000 nM for the second.

`COc1cc(CN(C)C(=O)c2csc(-c3sc(C)nc3-c3ccc(F)cc3)n2)cc(OC)c1OC` [Example 1936] and `Cc1nc(-c2ccc(F)cc2)c(-c2nc(C(=O)N(C)CCc3ccccc3)cs2)s1` [Example 1877] cannot be ordered by IC50: at most 1000 nM for the first, over 1000 nM for the second.

`Cc1ccc(C(=O)N2CCC(c3[nH]nc(-c4ccc(F)cc4)c3-c3nc(C(=O)NC(C)C)cs3)CC2)cc1` [Example 837] and `CC(C)NC(=O)c1csc(-c2c(-c3ccc(F)cc3)n[nH]c2C2CCN(C(=O)c3ccc(C(C)C)cc3)CC2)n1` [Example 885] cannot be ordered by IC50: over 1000 nM for the first, over 1000 nM for the second.

`CC(C)NC(=O)c1csc(-c2c(-c3ccc(F)cc3)noc2CNc2ccccc2COc2ccccc2)n1` [Example 1694] and `Cc1cccc(NCc2onc(-c3ccc(F)cc3)c2-c2nc(C(=O)NC(C)C)cs2)c1C` [Example 1644] cannot be ordered by IC50: over 1000 nM for the first, over 1000 nM for the second.

`Cc1nc(-c2ccc(F)cc2)c(-c2nc(C(=O)NCCC(C)(C)C)cs2)s1` [Example 1734] and `Cc1nc(-c2ccc(F)cc2)c(-c2nc(C(=O)NCCCCO)cs2)s1` [Example 1730] cannot be ordered by IC50: over 1000 nM for the first, at most 1000 nM for the second.

`Cc1nc(-c2ccc(F)cc2)c(-c2nc(C(=O)N(Cc3ccccc3)C(C)C)cs2)s1` [Example 1883] and `CCN(CC)CCN(Cc1ccccc1)C(=O)c1csc(-c2sc(C)nc2-c2ccc(F)cc2)n1` [Example 1932] cannot be ordered by IC50: over 1000 nM for the first, over 1000 nM for the second.

`COc1ccccc1CNC(=O)c1csc(-c2c(-c3ccc(F)cc3)n[nH]c2C2CCNCC2)n1` [Example 2101] and `O=C(NCc1cccc(F)c1)c1csc(-c2c(-c3ccc(F)cc3)n[nH]c2C2CCNCC2)n1` [Example 2080] cannot be ordered by IC50: over 1000 nM for the first, over 1000 nM for the second.

`Cc1cccc(CNCc2onc(-c3ccc(F)cc3)c2-c2nc(C(=O)NC(C)C)cs2)c1` [Example 1427] and `CC(C)NC(=O)c1csc(-c2c(-c3ccc(F)cc3)noc2CNCc2ccncc2)n1` [Example 1418] cannot be ordered by IC50: over 1000 nM for the first, over 1000 nM for the second.

`Cc1ccc(NCc2onc(-c3ccc(F)cc3)c2-c2nc(C(=O)NC(C)C)cs2)nc1` [Example 1634] and `CC(C)NC(=O)c1csc(-c2c(-c3ccc(F)cc3)noc2CN2CCN(C(=O)OC(C)(C)C)CC2)n1` [Example 1584] cannot be ordered by IC50: over 1000 nM for the first, over 1000 nM for the second.

`Cc1ccc(NC(=O)c2csc(-c3sc(C)nc3-c3ccc(F)cc3)n2)c(C)c1` [Example 1970] and `Cc1nc(-c2ccc(F)cc2)c(-c2nc(C(=O)N3CCN(c4ccc(C)c(C)c4)CC3)cs2)s1` [Example 1917] cannot be ordered by IC50: over 1000 nM for the first, over 1000 nM for the second.

`Cc1cccc(N2CCN(Cc3nc(-c4ccc(F)cc4)c(-c4nc(C(=O)NC(C)C)cs4)o3)CC2C)c1` (stereo not shown) [Example 1264] and `CC(C)NC(=O)c1csc(-c2oc(CN3CCN(c4ccccn4)CC3)nc2-c2ccc(F)cc2)n1` [Example 1242] cannot be ordered by IC50: over 1000 nM for the first, over 1000 nM for the second.

`CCCCCCCC(=O)N1CCC(c2[nH]nc(-c3ccc(F)cc3)c2-c2nc(C(=O)NC(C)C)cs2)CC1` [Example 842] and `O=C(CNC(=O)c1csc(-c2c(-c3ccc(F)cc3)n[nH]c2C2CCNCC2)n1)c1ccccc1` [Example 2140] cannot be ordered by IC50: over 1000 nM for the first, over 1000 nM for the second.
